Assay results as given in US7060501B2 (priority 2002, dated 2006).

Experiments:
[1] = target: organophosphate hydrolase (Brevundimonas diminuta, UniProt P0A434); conditions: cited from earlier work
maize callus = format: cell-based
[2] = tested on: organophosphate hydrolase; format: biochemical; conditions: 0.5 mM amiprophos-methyl, 2 μg organophosphate hydrolase, scans every 30 seconds
[3] = tested on: organophosphate hydrolase in maize callus; test: Coumaphos plate screen: fluorescence of maize callus under ultraviolet light; format: cell-based; conditions: 3 ml of 1 mg/ml coumaphos per plate, two days post-transfer
[4] = tested on: transgenic OPH and control callus cells; test: Growth of callus cultures on haloxon plates (prospective Example 9, FIG. 6); format: cell-based; conditions: haloxon 1, 5, 10, 50, 100 and 500 μM, six weeks, percentage growth compared to control

Molecule | rate of hydrolysis by organophosphate hydrolase compared with strong alkaline / non-enzymatic hydrolysis [1] | effect on new growth from maize callus (maize callus) | other results
COP(=O)(NC(C)=O)SC (stereo not drawn) [acephate] | thousands of times greater |  | 
COP(=S)(NC(C)C)Oc1ccc(C)cc1[N+](=O)[O-] (stereo not drawn) [amiprophos-methyl] |  | inhibitory effect | cleavage by organophosphate hydrolase, detected by absorbance [2]: results in the absorbance of light
CCOP(=S)(OCC)Oc1ccc2c(C)c(Cl)c(=O)oc2c1 [coumaphos] |  | inhibitory effect | fluorescence of non-transformed callus under ultraviolet light ([3]; non-transformed callus): did not; fluorescence of transformed callus under ultraviolet light ([3]; transformed callus): fluoresced
Cc1c(Cl)c(=O)oc2cc(OP(=O)(OCCCl)OCCCl)ccc12 [haloxon] |  |  | growth of transgenic OPH cells versus control cultures [4]: ability of the transgenic OPH cells to grow at concentrations where control cultures would not
CCOC(=O)CC(SP(=S)(OC)OC)C(=O)OCC (stereo not drawn) [malathion] | significantly better |  | capability of the enzyme for hydrolysis [1]: poor capability
CCOP(=S)(OCC)SCn1c(=O)oc2cc(Cl)ccc21 [phosalone] | thousands of times greater |  | 
CCCOP(=S)(OCCC)SCC(=O)N1CCCCC1C (stereo not drawn) [piperophos] |  | inhibitory effect | 
demeton-S-methyl | thousands of times greater |  | 
